Measurements reported in patent US20040266732A1, “Therapeutic agents, methods, and treatments” (priority 2002, published 2004).
pIC50: −log10 of the molar value.

Columns and labels:
Assay in all cases: NCI 60 cell-line test
Assay type in all cases: cell-based, human
[1] = tested on: M14; settings: M14 (Melanoma)
Description: (§1) Methodology: The NCI conducted a test of the MT103 drug against 60 human cell lines, with a minimum of five concentrations of MT103 at 10-fold dilutions. A 48 hour continuous drug exposure was used, and a sulforhodamine B (SRB) protein assay was used to estimate cell viability and growth. The human tumor cell lines of the cancer screening panel were grown in RPMI 1640 medium containing 5% fetal bovine serum and 2 mM L-glutamine. Cells were inoculated into 96 well microtiter plates in 100 μL at plating densities ranging from 5,000 to 40,000 cells/well depending on the doubling time of individual cell lines. After cell inoculation, the microtiter plates are incubated at 37° C., 5% CO2, 95% air, and 100% relative humidity for 24 h prior to addition of experimental drugs.
(§2) After 24 h, two plates of each cell line were fixed in situ with TCA, to represent a measurement of the cell population for each cell line at the time of drug addition (Tz). MT103 was solubilized in dimethyl sulfoxide at 400-fold the desired final maximum test concentration and stored frozen prior to use. At the time of drug addition, an aliquot of frozen concentrate was thawed and diluted to twice the desired final maximum test concentration with complete medium containing 50 μg/ml gentamicin. Additional four, 10-fold or ½ log serial dilutions were made to provide a total of five drug concentrations plus control. Aliquots of 100 μl of these different drug dilutions were added to the appropriate microtiter wells already containing 100 μl of medium, resulting in the required final drug concentrations.
(§3) Following drug addition, the plates were incubated for an additional 48 h at 37° C., 5% CO2, 95% air, and 100% relative humidity. For adherent cells, the assay was terminated by the addition of cold TCA. Cells were fixed in situ by the gentle addition of 50 μl of cold 50% (w/v) TCA (final concentration, 10% TCA) and incubated for 60 minutes at 4° C. The supernatant was discarded, and the plates were washed five times with tap water and air dried. Sulforhodamine B (SRB) solution (100 μl) at 0.4% (w/v) in 1% acetic acid was added to each well, and plates were incubated for 10 minutes at room temperature. After staining, unbound dye was removed by washing five times with 1% acetic acid and the plates were air-dried. Bound stain was subsequently solubilized with 10 mM trizma base, and the absorbance was read on an automated plate reader at a wavelength of 515 nm. For suspension cells, the methodology was the same except that the assay was terminated by fixing settled cells at the bottom of the wells by gently adding 50 μl of 80% TCA (final concentration, 16% TCA). Using the seven absorbance measurements (time zero, (Tz), control growth, (C), and test growth in the presence of drug at the five concentration levels (Ti)), the percentage growth was calculated at each of the drug concentrations levels. Percentage growth inhibition was calculated as:
(§4) [(Ti-Tz)/(C-Tz)]×100 for concentrations for which Ti>/=Tz
(§5) [(Ti-Tz)/Tz]×100 for concentrations for which Ti<Tz.
(§6) Three dose response parameters were calculated for each experimental agent. Growth inhibition of 50% (GI50) was calculated from [(Ti-Tz)/(C-Tz)]×100=50, which is the drug concentration resulting in a 50% reduction in the net protein increase (as measured by SRB staining) in control cells during the drug incubation. The drug concentration resulting in total growth inhibition (TGI) was calculated from Ti=Tz. The LC50 (concentration of drug resulting in a 50% reduction in the measured protein at the end of the drug treatment as compared to that at the beginning) indicating a net loss of cells following treatment was calculated from [(Ti-Tz)/Tz]×100=−50. Values were calculated for each of these three parameters if the level of activity is reached; however, if the effect was not reached or was exceeded, the value for that parameter was expressed as greater or less than the maximum or minimum concentration tested.

[2] = tested on: HS 578T; settings: HS 578T (Breast Cancer)
Description: as §1, §2, §3, §4, §5, §6

[3] = tested on: NCI/ADR-RES; settings: NCI/ADR-RES (Breast Cancer)
Description: as §1, §2, §3, §4, §5, §6

[4] = tested on: SR; settings: SR (Leukemia)
Description: as §1, §2, §3, §4, §5, §6

[5] = tested on: MDA-MB-231/ATCC; settings: MDA-MB-231/ATCC (Breast Cancer)
Description: as §1, §2, §3, §4, §5, §6

[6] = tested on: SF-539; settings: SF-539 (CNS Cancer)
Description: as §1, §2, §3, §4, §5, §6

[7] = tested on: UACC-62; settings: UACC-62 (Melanoma)
Description: as §1, §2, §3, §4, §5, §6

[8] = tested on: IGROV1; settings: IGROV1 (Ovarian Cancer)
Description: as §1, §2, §3, §4, §5, §6

[9] = tested on: NCI-H23; settings: NCI-H23 (Non-Small Cell Lung Cancer)
Description: as §1, §2, §3, §4, §5, §6

[10] = tested on: NCI-H522; settings: NCI-H522 (Non-Small Cell Lung Cancer)
Description: as §1, §2, §3, §4, §5, §6

[11] = tested on: 786-0; settings: 786-0 (Renal Cancer)
Description: as §1, §2, §3, §4, §5, §6

[12] = tested on: A498; settings: A498 (Renal Cancer)
Description: as §1, §2, §3, §4, §5, §6

[13] = tested on: NCI-H460; settings: NCI-H460 (Non-Small Cell Lung Cancer)
Description: as §1, §2, §3, §4, §5, §6

[14] = tested on: HCT-15; settings: HCT-15 (Colon Cancer)
Description: as §1, §2, §3, §4, §5, §6

[15] = tested on: KM12; settings: KM12 (Colon Cancer)
Description: as §1, §2, §3, §4, §5, §6

[16] = read-out: LC50 (the source's name)

CC1(C)C2CC[C@@]1(CS(=O)(=O)N(C1CCCCC1)C1CCCCC1)C(O)C2 (some centres unmarked) [MT103] gave a TGI [1] of over 1.00E−04, a pIC50 ([1]; read-out: G150) of 4.17 and a CC50 [1, 16] of over 100 µM. The TGI [2] was over 1.00E−04, the pIC50 ([2]; read-out: G150) was 4.54 and the CC50 [2, 16] was over 100 µM. It also gave a TGI [3] of over 1.00E−04, a pIC50 ([3]; read-out: G150) of 4.46 and a CC50 [3, 16] of over 100 µM. The TGI [4] was over 1.00E−04, the pIC50 ([4]; read-out: G150) was 4.62 and the CC50 [4, 16] was over 100 µM. It also gave a TGI [5] of 4.71E−05, a pIC50 ([5]; read-out: G150) of 4.77 and a CC50 [5, 16] of over 100 µM. The TGI [6] was over 1.00E−04, the pIC50 ([6]; read-out: G150) was 4.26 and the CC50 [6, 16] was over 100 µM. The TGI [7] was 4.65E−05, the pIC50 ([7]; read-out: G150) was 4.73 and the CC50 [7, 16] was over 100 µM. It also gave a TGI [8] of over 1.00E−04, a pIC50 ([8]; read-out: G150) of 4.46 and a CC50 [8, 16] of over 100 µM. For the same compound, the pIC50 ([9]; read-out: G150) was 4.57, the CC50 [9, 16] was over 100 µM and the TGI [10] was 5.50E−05. The pIC50 ([10]; read-out: G150) was 4.67, the CC50 [10, 16] was over 100 µM and the TGI [11] was over 1.00E−04. It also gave a pIC50 ([11]; read-out: G150) of 4.33, a CC50 [11, 16] of over 100 µM and a TGI [12] of 9.07E−05. It also gave a pIC50 ([12]; read-out: G150) of 4.52, a CC50 [12, 16] of over 100 µM and a TGI [13] of over 1.00E−04. The pIC50 ([13]; read-out: G150) was 4.51, the CC50 [13, 16] was over 100 µM and the TGI [14] was over 1.00E−04. For the same compound, the pIC50 ([14]; read-out: G150) was 4.59, the CC50 [14, 16] was over 100 µM and the TGI [15] was 9.73E−05. It also gave a pIC50 ([15]; read-out: G150) of 4.55 and a CC50 [15, 16] of over 100 µM.
